Measurements as given in the supplement of paper PMC10307832.

What was measured:
Experiment in all cases: relative viability (nuclei count vs DMSO), 5 days (fraction); higher = more cells survive
[1] = compound: Nc1nc(Nc2ccc3c(c2)CC[C@@H](N2CCCC2)CC3)nn1-c1cc2c(nn1)-c1ccccc1CCC2 [Bemcentinib] + Nc1nc2[nH]cc(CCc3ccc(C(=O)N[C@@H](CCC(=O)O)C(=O)O)cc3)c2c(=O)[nH]1 [Pemetrexed] (partner 0.2 µM)
Outline: (§1)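 Lung cancer cell lines in 1536-well plates got either a single drug or a fixed anchor-drug dose together with five library-drug doses (not always all listed) in √10 steps, by pin tool, on the day after seeding. Nuclei were counted after 5 days, and relative viability is the treated-to-vehicle ratio of nuclei counts. Values are medians of duplicate plates.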

[2] = compound: Nc1nc(Nc2ccc3c(c2)CC[C@@H](N2CCCC2)CC3)nn1-c1cc2c(nn1)-c1ccccc1CCC2 [Bemcentinib] + COc1cc2c(Oc3ccc(NC(=O)C4(C(=O)Nc5ccc(F)cc5)CC4)cc3F)ccnc2cc1OCCCN1CCOCC1 [Foretinib] (partner 0.25 µM)
Outline: as §1

[3] = compound: Nc1nc(Nc2ccc3c(c2)CC[C@@H](N2CCCC2)CC3)nn1-c1cc2c(nn1)-c1ccccc1CCC2 [Bemcentinib] + Cc1nc(Nc2ncc(C(=O)Nc3c(C)cccc3Cl)s2)cc(N2CCN(CCO)CC2)n1 [Dasatinib] (partner 0.075 µM)
Outline: as §1

[4] = compound: Nc1nc(Nc2ccc3c(c2)CC[C@@H](N2CCCC2)CC3)nn1-c1cc2c(nn1)-c1ccccc1CCC2 [Bemcentinib] + CC1(C)CCC(c2ccc(Cl)cc2)=C(CN2CCN(c3ccc(C(=O)NS(=O)(=O)c4ccc(N[C@H](CCN5CCOCC5)CSc5ccccc5)c(S(=O)(=O)C(F)(F)F)c4)cc3)CC2)C1 [Navitoclax] (partner 0.5 µM)
Outline: as §1

| Cell Line | relative viability ([1]; first compound 0.04 µM) | relative viability ([1]; first compound 0.1265 µM) | relative viability ([1]; first compound 0.4 µM) | relative viability ([1]; first compound 1.265 µM) | relative viability ([1]; first compound 4 µM) | relative viability ([2]; first compound 0.04 µM) | relative viability ([2]; first compound 0.1265 µM) | relative viability ([2]; first compound 0.4 µM) | relative viability ([2]; first compound 1.265 µM) | relative viability ([2]; first compound 4 µM) | relative viability ([3]; first compound 0.04 µM) | relative viability ([3]; first compound 0.1265 µM) | relative viability ([3]; first compound 0.4 µM) | relative viability ([3]; first compound 1.265 µM) | relative viability ([3]; first compound 4 µM) | relative viability ([4]; first compound 0.04 µM) | relative viability ([4]; first compound 0.1265 µM) | relative viability ([4]; first compound 0.4 µM) | relative viability ([4]; first compound 1.265 µM) | relative viability ([4]; first compound 4 µM) |
| --- | --- | --- | --- | --- | --- | --- | --- | --- | --- | --- | --- | --- | --- | --- | --- | --- | --- | --- | --- | --- |
| NCI-H1651 | 0.548 | 0.592 | 0.646 | 0.475 | 0.614 | 0.824 | 0.928 | 0.812 | 0.856 | 1.14 | 0.393 | 0.381 | 0.484 | 0.41 | 0.498 | 0.966 | 1.16 | 1.35 | 1.14 | 1.24 |
| NCI-H1666 | 0.884 | 0.845 | 0.813 | 0.885 | 0.827 | 0.959 | 1.26 | 1.06 | 0.856 | 0.911 | 0.755 | 0.781 | 0.806 | 0.773 | 0.781 | 0.864 | 0.942 | 1.01 | 0.866 | 1.03 |
| NCI-H1734 | 0.419 | 0.459 | 0.398 | 0.402 | 0.448 | 0.854 | 0.916 | 0.818 | 0.838 | 0.952 | 0.46 | 0.48 | 0.512 | 0.41 | 0.448 | 0.872 | 0.986 | 0.94 | 0.886 | 0.875 |
| NCI-H1755 | 0.418 | 0.498 | 0.565 | 0.569 | 0.455 | 0.925 | 0.923 | 0.947 | 0.987 | 0.935 | 0.379 | 0.511 | 0.397 | 0.438 | 0.41 | 1.05 | 1.04 | 1.03 | 1.11 | 1.08 |
| NCI-H1793 | 0.853 | 1.05 | 0.933 | 0.853 | 0.813 | 0.816 | 0.726 | 0.772 | – | 0.693 | 0.305 | 0.412 | 0.342 | – | 0.405 | 0.438 | 0.44 | 0.425 | 0.545 | 0.427 |
| NCI-H1915 | 0.48 | 0.533 | 0.538 | 0.489 | 0.443 | 1.11 | 1.08 | 1.15 | 1.07 | 1.17 | 0.304 | 0.302 | 0.307 | 0.332 | 0.331 | 0.805 | 0.81 | 0.817 | 0.788 | 0.788 |
| NCI-H1944 | 0.633 | 0.66 | 0.649 | 0.589 | 0.634 | 0.876 | 0.924 | 0.866 | 0.951 | 0.865 | 0.206 | 0.202 | 0.214 | 0.204 | 0.2 | 0.964 | 1.02 | 1.04 | 0.977 | 1.08 |
| NCI-H1975 | 0.307 | 0.362 | 0.301 | 0.283 | 0.299 | 0.982 | 0.995 | 0.995 | 0.865 | 1.04 | 0.344 | 0.424 | 0.432 | 0.386 | 0.354 | 1.03 | 1.23 | 1.12 | 1.05 | 1.2 |
| NCI-H1993 | 0.566 | 0.59 | 0.623 | 0.584 | 0.62 | 0.82 | 0.76 | 0.833 | 0.764 | 0.829 | 0.571 | 0.563 | 0.625 | 0.552 | 0.577 | 0.897 | 0.911 | 1.02 | 0.994 | 1.08 |
| NCI-H2009 | 1.03 | 1.07 | 1.12 | 1.07 | 1.01 | 1.29 | 1.26 | 1.25 | 1.24 | 1.24 | 0.24 | 0.303 | 0.276 | 0.272 | 0.247 | 1.12 | 1.16 | 1.22 | 1.14 | 1.21 |
| NCI-H2023 | 0.225 | 0.287 | 0.217 | 0.213 | 0.198 | 0.824 | 1.09 | 0.936 | 0.731 | 0.686 | 0.56 | 0.727 | 0.606 | 0.677 | 0.64 | 0.963 | 1.12 | 1.11 | 1.12 | 0.996 |
| NCI-H2085 | 0.857 | 0.945 | 0.861 | 0.876 | 0.714 | 1.08 | 1.11 | 0.915 | 1.01 | 0.889 | 0.224 | 0.195 | 0.258 | 0.256 | 0.294 | 1.07 | 1.07 | 1.1 | 1.18 | 1.1 |
| NCI-H2087 | 0.772 | 0.798 | 0.64 | 0.611 | 0.685 | 1.08 | 1.32 | 1.14 | 1.21 | 0.937 | 0.797 | 1.02 | 0.949 | 0.901 | 0.929 | 1.16 | 1.03 | 1.15 | 0.992 | 1.02 |
| NCI-H2126 | 0.732 | 0.671 | 0.713 | 0.646 | 0.831 | 1.25 | 1.43 | 1.37 | 1.13 | 1.23 | 0.559 | 0.67 | 0.646 | 0.71 | 0.699 | 0.835 | 0.929 | 0.892 | 0.869 | 0.833 |
| NCI-H2170 | 0.264 | 0.278 | 0.283 | 0.244 | 0.264 | 0.971 | 1.16 | 1.02 | 1.03 | 0.993 | 0.485 | 0.664 | 0.603 | 0.477 | 0.589 | 0.701 | 0.636 | 0.627 | 0.675 | 0.638 |
| NCI-H2228 | 0.325 | 0.346 | 0.351 | 0.34 | 0.321 | 0.516 | 0.931 | 0.994 | 0.908 | 0.776 | 0.14 | 0.566 | 0.532 | 0.526 | 0.538 | – | 1.06 | 1.15 | 0.909 | 1.08 |
